Data reported in patent US20240150368A1, “ULK INHIBITORS AND METHODS OF USE THEREOF” (Deciphera Pharmaceuticals, LLC, priority 2022, published 2024).
pIC50: −log10 of the molar value.

Legend:
ULK1 kinase = biological target: T1, ULK1 kinase (Homo sapiens, UniProt O75385, E37A/K38A); assay: Biochemical assay for ULK1 (coupled pyruvate kinase/lactate dehydrogenase assay); conditions: 1 mM ATP, 0.1 nM ULK1; read-out: ULK1 (inhibition of biochemical activity), IC50
T1 construct: (residues 1-283; ID NO: 1); purchased Beryllium
T1 sequence (O75385 1-283 E37A/K38A): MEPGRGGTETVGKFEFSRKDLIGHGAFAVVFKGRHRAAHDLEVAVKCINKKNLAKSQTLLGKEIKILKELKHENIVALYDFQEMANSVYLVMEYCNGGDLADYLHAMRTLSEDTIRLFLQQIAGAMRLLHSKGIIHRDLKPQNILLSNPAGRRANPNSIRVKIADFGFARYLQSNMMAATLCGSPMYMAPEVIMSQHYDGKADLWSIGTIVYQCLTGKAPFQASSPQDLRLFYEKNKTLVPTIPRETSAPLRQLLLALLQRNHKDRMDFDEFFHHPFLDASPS
In short: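 IC50 values were fitted to percent inhibition, normalised with no-compound and known-inhibitor controls, using rates from 2–3 h of a 6 h read at 30 °C. ADP was coupled through pyruvate kinase/lactate dehydrogenase to NADH loss at 340 nm.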

ULK2 kinase = biological target: T2, ULK2 kinase (Homo sapiens, UniProt Q8IYT8); assay: Biochemical assay for ULK2 (coupled pyruvate kinase/lactate dehydrogenase assay); conditions: 1 mM ATP, 1 nM ULK2; read-out: ULK2 (inhibition of biochemical activity), IC50
T2 construct: (residues 1-306 with N-terminal GST and His tag; ID NO: 2); purchased Signal Chem U02-11G
In short: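 Continuous PK/LDH-coupled NADH oxidation assay (A340) with 1 nM ULK2, 200 μM ULKtide and 1 mM ATP in Tris pH 7.5, 15 mM MgCl2, 1% DMSO, read 6 h at 30° C. Rates from the 2-3 h window converted to percent inhibition against no-compound and known-inhibitor controls; IC50 by four-parameter sigmoidal fit.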

[1] = system: ULK kinase substrate ATG13 (pS318-ATG13) in MiaPaCa-2 cells; assay: pATG13 levels of mutant KRas MiaPaCa-2 cells after treatment with ULK inhibitors in combination with trametinib (ELISA); type: cell-based, human
In short: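 MiaPaCa-2 cells grown overnight, then dosed with test compound titration plus trametinib (final 250 nM) or DMSO, overnight at 37° C. Lysate pS318-ATG13 measured by sandwich ELISA (total ATG13 capture, biotinylated pS318 detection, HRP/TMB, A450 minus A540); % phosphorylation vs control wells fitted to IC50.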

T2 sequence (Q8IYT8 with tags, fused parts or gaps): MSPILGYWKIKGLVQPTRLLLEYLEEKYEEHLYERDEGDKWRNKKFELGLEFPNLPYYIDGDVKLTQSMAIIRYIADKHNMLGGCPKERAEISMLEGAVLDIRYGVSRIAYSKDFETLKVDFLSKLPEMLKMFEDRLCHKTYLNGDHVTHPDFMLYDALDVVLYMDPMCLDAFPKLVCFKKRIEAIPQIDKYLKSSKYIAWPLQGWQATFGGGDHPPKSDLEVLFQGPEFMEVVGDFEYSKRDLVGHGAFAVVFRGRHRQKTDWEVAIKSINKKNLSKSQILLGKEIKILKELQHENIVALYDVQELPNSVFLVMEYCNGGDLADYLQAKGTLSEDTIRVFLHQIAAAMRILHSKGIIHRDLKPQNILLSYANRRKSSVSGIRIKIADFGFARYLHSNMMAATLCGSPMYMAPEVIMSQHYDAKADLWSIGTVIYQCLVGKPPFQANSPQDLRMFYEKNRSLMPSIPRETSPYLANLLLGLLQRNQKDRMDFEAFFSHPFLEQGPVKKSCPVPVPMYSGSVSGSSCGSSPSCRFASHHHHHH

SMILES | pIC50 (ULK1 kinase) | pIC50 (ULK2 kinase) | pIC50 [1]
CC/C(Nc1cnn(CCN(C)C)c1)=C1/C(=O)Nc2ccc(C(=O)NCC(F)(F)F)cc21 [Example 103] | ≥ 8.00 | 7.00 to 8.00 | ≥ 7.00
CC/C(Nc1cnn([C@H]2CCOC2)c1)=C1/C(=O)Nc2ccc(C(=O)NCC(F)(F)F)cc21 [Example 104] | ≥ 8.00 | 7.00 to 8.00 | ≥ 7.00
CC/C(Nc1cnn([C@@H]2CCOC2)c1)=C1/C(=O)Nc2ccc(C(=O)NCC(F)(F)F)cc21 [Example 105] | ≥ 8.00 | 7.00 to 8.00 | ≥ 7.00
CC/C(Nc1cnn(C2CCOCC2)c1)=C1/C(=O)Nc2ccc(C(=O)NCC(F)(F)F)cc21 [Example 106] | ≥ 8.00 | 7.00 to 8.00 | ≥ 7.00
CC/C(Nc1cnn(CC)c1)=C1/C(=O)Nc2ccc(C(=O)NCC(F)(F)F)cc21 [Example 107] | ≥ 8.00 | 7.00 to 8.00 | ≥ 7.00
CC/C(Nc1cn[nH]c1)=C1/C(=O)Nc2ccc(C(=O)NCC(F)(F)F)cc21 [Example 108] | 7.00 to 8.00 | 7.00 to 8.00 | 6.52 to 7.00
CC/C(Nc1cnn(C(F)(F)F)c1)=C1/C(=O)Nc2ccc(C(=O)NCC(F)(F)F)cc21 [Example 113] | 7.00 to 8.00 | 7.00 to 8.00 | ≥ 7.00
CC/C(Nc1cnn(C(F)F)c1)=C1/C(=O)Nc2ccc(C(=O)NCC(F)(F)F)cc21 [Example 114] | 7.00 to 8.00 | 7.00 to 8.00 | ≥ 7.00
CC/C(Nc1cnn(C2CC2)c1)=C1/C(=O)Nc2ccc(C(=O)NCC(F)(F)F)cc21 [Example 116] | 7.00 to 8.00 | 7.00 to 8.00 | ≥ 7.00
CC/C(Nc1cnn(C2CCC2)c1)=C1/C(=O)Nc2ccc(C(=O)NCC(F)(F)F)cc21 [Example 117] | ≥ 8.00 | ≥ 8.00 | ≥ 7.00
CC/C(Nc1cnn(C2COC2)c1)=C1/C(=O)Nc2ccc(C(=O)NCC(F)(F)F)cc21 [Example 118] | ≥ 8.00 | 7.00 to 8.00 | ≥ 7.00
CC/C(Nc1cn(C(C)C)nn1)=C1/C(=O)Nc2ccc(C(=O)NCC(F)(F)F)cc21 [Example 122] | 7.00 to 8.00 | 7.00 to 8.00 | 6.52 to 7.00
CC/C(Nc1cnn(C2CCN(C(C)C)CC2)c1)=C1/C(=O)Nc2ccc(C(C)=O)cc21 [Example 123] | 6.30 to 7.00 | 6.30 to 7.00 | ≥ 7.00
CC/C(Nc1cccnc1)=C1/C(=O)Nc2ccc(C(=O)NCC(F)(F)F)cc21 [Example 124] | 6.30 to 7.00 | < 6.30 | 6.22 to 6.52
CC/C(Nc1cnn(C(C)C)c1)=C1/C(=O)Nc2ccc(C(=O)N(C)CC(F)(F)F)cc21 [Example 125] | 7.00 to 8.00 | 7.00 to 8.00 | 6.52 to 7.00
CC/C(Nc1cnn(C(C)C)c1)=C1/C(=O)Nc2ccc(C(=O)NCC3CCC4(CCC4)O3)cc21 (stereo not drawn) [Example 138] | 7.00 to 8.00 | 6.30 to 7.00 | 6.22 to 6.52
CC/C(Nc1cnn(C(C)C)c1)=C1/C(=O)Nc2ccc(C(=O)NCC3(C(F)(F)F)CC3)cc21 [Example 140] | ≥ 8.00 | 7.00 to 8.00 | ≥ 7.00
CC/C(Nc1ccc2nn(C(C)C)cc2c1)=C1/C(=O)Nc2ccc(C(=O)NCC(F)(F)F)cc21 [Example 142] | 7.00 to 8.00 | 7.00 to 8.00 | 6.52 to 7.00
CC/C(Nc1cnn(C2CC(F)(F)C2)c1)=C1/C(=O)Nc2ccc(C(=O)NCC(F)(F)F)cc21 [Example 144] | ≥ 8.00 | 7.00 to 8.00 | ≥ 7.00
CC/C(Nc1ccccn1)=C1/C(=O)Nc2ccc(C(=O)NCC(F)(F)F)cc21 [Example 145] | 7.00 to 8.00 | 6.30 to 7.00 | 6.52 to 7.00
CC/C(Nc1cc(C(F)(F)F)ccn1)=C1/C(=O)Nc2ccc(C(=O)NCC(F)(F)F)cc21 [Example 149] | 7.00 to 8.00 | 7.00 to 8.00 | 6.52 to 7.00
CC/C(Nc1cnn(CC)c1)=C1/C(=O)Nc2ccc(C(=O)NCC3(F)CC3)cc21 [Example 153] | ≥ 8.00 | ≥ 8.00 | ≥ 7.00
CC/C(Nc1cnn(C)c1)=C1/C(=O)Nc2ccc(C(=O)NCC3(F)CC3)cc21 [Example 154] | ≥ 8.00 | 7.00 to 8.00 | ≥ 7.00
CC/C(Nc1cnn(CC(C)OC)c1)=C1/C(=O)Nc2ccc(C(=O)NCC(F)(F)F)cc21 (stereo not drawn) [Example 157] | 7.00 to 8.00 | 6.30 to 7.00 | ≥ 7.00
CC/C(Nc1cnn(CC(C)OC)c1)=C1/C(=O)Nc2ccc(C(=O)NCC(F)(F)F)cc21 (stereo not drawn) [Example 158] | 7.00 to 8.00 | 6.30 to 7.00 | 6.52 to 7.00
CC/C(Nc1cnn(C(C)CC)c1)=C1/C(=O)Nc2ccc(C(=O)NCC(F)(F)F)cc21 (stereo not drawn) [Example 159] | 7.00 to 8.00 | 7.00 to 8.00 | ≥ 7.00

The next lines start with the values.

pIC50 (ULK1 kinase) | pIC50 (ULK2 kinase) | pIC50 [1] | SMILES
7.00 to 8.00 | 7.00 to 8.00 | ≥ 7.00 | CC/C(Nc1cnn(C(C)C)c1)=C1/C(=O)Nc2ccc(C(=O)NCC(F)F)cc21 [Example 112]
≥ 8.00 | 7.00 to 8.00 | ≥ 7.00 | CC/C(Nc1cnn(C(C)C)c1)=C1/C(=O)Nc2ccc(C(=O)N[C@H](C)C(F)(F)F)cc21 [Example 119]
7.00 to 8.00 | 6.30 to 7.00 | 6.52 to 7.00 | CC/C(Nc1cnn(C(C)C)c1)=C1/C(=O)Nc2ccc(C(=O)NCCOC)cc21 [Example 126]
7.00 to 8.00 | 7.00 to 8.00 | 6.52 to 7.00 | CC/C(Nc1cnn(C(C)C)c1)=C1/C(=O)Nc2ccc(C(=O)NCCC#N)cc21 [Example 127]
7.00 to 8.00 | 6.30 to 7.00 | 6.22 to 6.52 | CC/C(Nc1cnn(C(C)C)c1)=C1/C(=O)Nc2ccc(C(=O)NC[C@@H](C)OC)cc21 [Example 128]
≥ 8.00 | 7.00 to 8.00 | ≥ 7.00 | CC/C(Nc1cnn(C(C)C)c1)=C1/C(=O)Nc2ccc(C(=O)NCC(C)C)cc21 [Example 130]
≥ 8.00 | 7.00 to 8.00 | ≥ 7.00 | CC/C(Nc1cnn(C(C)C)c1)=C1/C(=O)Nc2ccc(C(=O)NCC3CC(F)(F)C3)cc21 [Example 134]
≥ 8.00 | 7.00 to 8.00 | ≥ 7.00 | CC/C(Nc1cnn(C(C)C)c1)=C1/C(=O)Nc2ccc(C(=O)NCC(C)(C)F)cc21 [Example 135]
≥ 8.00 | 7.00 to 8.00 | ≥ 7.00 | CC/C(Nc1cnn(C(C)C)c1)=C1/C(=O)Nc2ccc(C(=O)NCCOC(F)(F)F)cc21 [Example 136]
≥ 8.00 | 7.00 to 8.00 | 6.52 to 7.00 | CC/C(Nc1cnn(C(C)C)c1)=C1/C(=O)Nc2ccc(C(=O)NCC3CCC(C)(C)O3)cc21 (stereo not drawn) [Example 137]
7.00 to 8.00 | 6.30 to 7.00 | ≥ 7.00 | CC/C(Nc1cnn(C(F)F)c1)=C1/C(=O)Nc2ccc(C(=O)NCC(C)C)cc21 [Example 147]
7.00 to 8.00 | 6.30 to 7.00 | 6.52 to 7.00 | CC/C(Nc1cnn(C(C)C)c1)=C1/C(=O)Nc2ccc(C(=O)NCC(C)(C)OC)cc21 [Example 148]
≥ 8.00 | ≥ 8.00 | ≥ 7.00 | CC/C(Nc1cnn(C(C)C)c1)=C1/C(=O)Nc2ccc(C(=O)NCC3(F)CC3)cc21 [Example 152]
≥ 8.00 | 7.00 to 8.00 | ≥ 7.00 | CC/C(Nc1cnn(C(C)C)c1)=C1/C(=O)Nc2ccc(C(=O)NCC3(C#N)CC3)cc21 [Example 156]
